One data set concerns large crabgrass. In words: Large crabgrass control comparison. The format is in vivo, Digitaria spp. The conditions noted are these: 1 to 2 tiller growth stage.
For data set [1], the system named is 'Meyer' zoysiagrass. The conditions noted are these: in vivo.
In data set [2] the test system is 'Tifway' bermudagrass. The following applies: in vivo.
A further data set concerns Lamium amplexicaule. In words: Broadleaf weed control (JSM 08-5), Lamium amplexicaule. The format is in vivo. From the text: (§1) Treatments were applied with a CO2 pressurized spray system at a volume of 280 L ha^−1. A four nozzle spray boom utilizing 8002 XR flat fan nozzles (Spraying Systems, Inc, Wheaton, Ill.) on 25 cm spacing and a height of 25 cm was utilized. Spray pressure at the nozzle was 22 PSI and ground speed was 5 km/h. All treatments were applied with 0.25% v/v non-ionic surfactant (X-77 Non-Ionic Surfactant; Helena Chemical Company, Memphis, Tenn.).

The test system of data set [3] is 'Palmetto' St. Augustinegrass. The conditions noted are these: in vivo.
The next data set relates to Stellaria media. In words: Broadleaf weed control (JSM 08-5), Stellaria media. The format is in vivo.
Excerpt: as §1

The test system of the next data set is Geranium carolinianum. Nature of the data set: Broadleaf weed control (JSM 08-5), Geranium carolinianum. The format is in vivo.
Excerpt: as §1

For a further data set, the system named is St. Augustinegrass turf. Nature of the data set: Safening comparison of propoxycarbazone and flucarbazone, St. Augustinegrass injury.
Data set [4] deals with bermudagrass turf. Nature of the data set: Safening comparison of propoxycarbazone and flucarbazone, bermudagrass injury.
Data set [5] concerns bermudagrass turf. Nature of the data set: Tembotrione safening with flucarbazone, bermudagrass injury. The conditions noted are these: in vivo. Also on record: species or system Cynodon dacytlon.
Excerpt: as §1
Tembotrione is a carotenoid biosynthesis inhibiting herbicide that injures bermudagrass. Table 5 refers to research data evaluating the safening of flucarbazone when combined with tembotrione. Tembotrione applied at 0.023 to 0.092 kg/ha injured bermudagrass turf from 30 to 72%; with the greatest injury occurring at 0.092. All tembotrione plus flucarbazone treatments reduced bermudagrass injury when compared to the equivalent rates of tembotrione alone. Tembotrione (at 0.092 kg/ha) plus flucarbazone at 0.015 or 0.029 kg/ha injured bermudagrass 20; however, flucarbazone at 0.059 reduced bermudagrass injury greater to 8%. It is likely that higher rates of flucarbazone will be needed to provide adequate bermudagrass safening as higher rates of tembotrione are applied.

The next data set has as its system St. Augustinegrass. The conditions noted are these: in vivo.
Data set [6] relates to 'Tifway' bermudagrass. Nature of the data set: Run one visual turfgrass injury, bermudagrass (JSM 08-4). The following applies: Rate 0.25 kg ai/ha.
For data set [7], the system named is 'Tifway' bermudagrass. In words: Run two visual turfgrass injury, bermudagrass (JSM 08-14).
In data set [8] the test system is 'Meyer' zoysiagrass. In words: Run two visual turfgrass injury, zoysiagrass (JSM08-15).
The test system of data set [9] is 'Palmetto' St. Augustinegrass. Nature of the data set: Run two visual turfgrass injury, St. Augustinegrass (JSM08-14).
Data set [10] deals with 'Meyer' zoysiagrass. In words: Run one visual turfgrass injury, zoysiagrass (JSM08-6). The following applies: Rate 0.25 kg ai/ha.
Data set [11] relates to 'Palmetto' St. Augustinegrass. In words: Run one visual turfgrass injury, St. Augustinegrass (JSM 08-8). The conditions noted are these: Rate 0.25 kg ai/ha.

Where two headings read alike, the source gives them in different places.

With `COc1nn(C(=O)NS(=O)(=O)c2ccccc2OC(F)(F)F)c(=O)n1C` [Flucarbazone, 4,5-dihydro-3-methoxy-4-methyl-5-oxo-N-[2-(trifluoromethoxy)phenylsulfonyl]-1H-1,2,4-triazole-1-carboxamide], in the data set with large crabgrass (Rate 0.009 kg ai/ha), the “Large Crabgrass Control 21 DAT” value came to 17% and the “Large Crabgrass Control 51 DAT” value turned out to be 0%. Also, in the data set on 'Meyer' zoysiagrass [1], the “Visual Turfgrass Injury ~13 DAT Zoysiagrass (JSM08-6)” value was 0% and the “Visual Turfgrass Injury ~20 DAT Zoysiagrass (JSM08-6)” value turned out to be 0%. Besides, in the data set with 'Tifway' bermudagrass [2], the “Visual Turfgrass Injury ~13 DAT Bermudagrass (JSM 08-4)” value is reported as 0% and the “Visual Turfgrass Injury ~20 DAT Bermudagrass (JSM 08-4)” value was 0%. Also, in the data set with Lamium amplexicaule (Rate 0.007 kg ai/ha), the “Weed Control 21 DAT Lamium amplexicaule” value stood at 3%. In the data set with Lamium amplexicaule (Rate 0.029 kg ai/ha), the “Weed Control 21 DAT Lamium amplexicaule” value was 10%. The “Visual Turfgrass Injury ~13 DAT St. Augustinegrass (JSM 08-8)” value in data set [3] was determined as 0%. Further, the “Weed Control 21 DAT Stellaria media” value in the data set on Stellaria media (Rate 0.007 kg ai/ha) is 35%. Further, the “Weed Control 21 DAT Stellaria media” value in the data set with Stellaria media (Rate 0.029 kg ai/ha) amounted to 62%. The “Weed Control 21 DAT Geranium carolinianum” value in the data set with Geranium carolinianum (Rate 0.007 kg ai/ha) was 62%. For the same compound, the “Weed Control 21 DAT Geranium carolinianum” value with Geranium carolinianum (Rate 0.029 kg ai/ha) came to 55%.
As for `CCCOc1nn(C(=O)NS(=O)(=O)c2ccccc2C(=O)OC)c(=O)n1C` [Propoxycarbazone, methyl 2-[(4,5-dihydro-4-methyl-5-oxo-3-propoxy-1H-1,2,4-triazole-1-carboxamido)sulfonyl]benzoate], the “Turfgrass Injury 15 DAT St. Augustinegrass” value with St. Augustinegrass turf (Rate 0.044 kg ai/ha), in the data set on St. Augustinegrass turf (Rate 0.088 kg ai/ha) and with St. Augustinegrass turf (Rate 0.177 kg ai/ha) was 0% in each case. The “Turfgrass Injury 15 DAT Bermudagrass” value in the data set with bermudagrass turf [4] (Rate 0.044 kg ai/ha), with bermudagrass turf [4] (Rate 0.088 kg ai/ha) and with bermudagrass turf [4] (Rate 0.177 kg ai/ha) was 0% in each case.
Take `COc1c(Cl)ccc(Cl)c1C(=O)O` [Dicamba]: the “Weed Control 21 DAT Lamium amplexicaule” value with Lamium amplexicaule (Rate 0.28 kg ai/ha) is given as 10%. Moreover, in the data set on Stellaria media (Rate 0.28 kg ai/ha), the “Weed Control 21 DAT Stellaria media” value was 65%. Besides, in the data set with Geranium carolinianum (Rate 0.28 kg ai/ha), the “Weed Control 21 DAT Geranium carolinianum” value was 73%.
Consider `CS(=O)(=O)c1ccc(C(=O)C2C(=O)CCCC2=O)c(Cl)c1COCC(F)(F)F` [Tembotrione, 2-{2-chloro-4-mesyl-3-[(2,2,2-trifluoroethoxy)methyl]benzoyl}cyclohexane-1,3-dione], for which, in the data set on bermudagrass turf [5], the “Bermudagrass Injury 23 DAT” value is 0% and the bermudagrass turf injury is given as 30-72%. In addition, the “St. Augustinegrass injury” value in the data set with St. Augustinegrass was “no injury was observed”.
In the case of `CS(=O)(=O)c1ccc(C(=O)C2C(=O)CCCC2=O)c([N+](=O)[O-])c1` [Mesotrione, 2-(4-methylsulfonyl-2-nitrobenzoyl)cyclohexane-1,3-dione], in the data set with large crabgrass (Rate 0.175 kg ai/ha), the “Large Crabgrass Control 21 DAT” value was 95% and the “Large Crabgrass Control 51 DAT” value is reported as 78%. Moreover, in the data set with 'Tifway' bermudagrass [6], the “Visual Turfgrass Injury ~13 DAT Bermudagrass (JSM 08-4)” value is 12% and the “Visual Turfgrass Injury ~20 DAT Bermudagrass (JSM 08-4)” value is 7%. Also, in the data set with Lamium amplexicaule (Rate 0.28 kg ai/ha), the “Weed Control 21 DAT Lamium amplexicaule” value amounted to 100%. Moreover, in the data set with 'Tifway' bermudagrass [7] (Rate 0.18 kg ai/ha), the “Visual Turfgrass Injury 7 DAT Bermudagrass (JSM 08-14)” value was 32% and the “Visual Turfgrass Injury 21 DAT Bermudagrass (JSM 08-14)” value is given as 23%. In the data set on 'Tifway' bermudagrass [7] (Rate 0.28 kg ai/ha), the “Visual Turfgrass Injury 7 DAT Bermudagrass (JSM 08-14)” value was determined as 35% and the “Visual Turfgrass Injury 21 DAT Bermudagrass (JSM 08-14)” value is 27%. Moreover, in the data set on 'Meyer' zoysiagrass [8] (Rate 0.18 kg ai/ha), the “Visual Turfgrass Injury 7 DAT Zoysiagrass (JSM08-15)” value came to 18% and the “Visual Turfgrass Injury 21 DAT Zoysiagrass (JSM08-15)” value was determined as 20%. For the same compound, in the data set on 'Meyer' zoysiagrass [8] (Rate 0.28 kg ai/ha), the “Visual Turfgrass Injury 7 DAT Zoysiagrass (JSM08-15)” value was determined as 22% and the “Visual Turfgrass Injury 21 DAT Zoysiagrass (JSM08-15)” value is on record as 23%. Further, the “Turfgrass Injury 15 DAT St. Augustinegrass” value with St. Augustinegrass turf (Rate 0.42 kg ai/ha) is reported as 35%. Moreover, in data set [9] (Rate 0.18 kg ai/ha), the “Visual Turfgrass Injury 7 DAT St. Augustinegrass (JSM08-14)” value came to 38% and the “Visual Turfgrass Injury 21 DAT St. Augustinegrass (JSM08-14)” value came to 32%. In data set [9] (Rate 0.28 kg ai/ha), the “Visual Turfgrass Injury 7 DAT St. Augustinegrass (JSM08-14)” value came out at 40% and the “Visual Turfgrass Injury 21 DAT St. Augustinegrass (JSM08-14)” value is reported as 33%. In addition, the “Turfgrass Injury 15 DAT Bermudagrass” value with bermudagrass turf [4] (Rate 0.42 kg ai/ha) worked out at 28%. Besides, the “Weed Control 21 DAT Stellaria media” value with Stellaria media (Rate 0.28 kg ai/ha) is reported as 100%. Moreover, in the data set on Geranium carolinianum (Rate 0.28 kg ai/ha), the “Weed Control 21 DAT Geranium carolinianum” value came out at 20%. In addition, the “Visual Turfgrass Injury ~13 DAT Zoysiagrass (JSM08-6)” value with 'Meyer' zoysiagrass [10] is recorded as 30%. For the same compound, in the data set on 'Meyer' zoysiagrass [10] (rated 22 DAT), the “Visual Turfgrass Injury ~20 DAT Zoysiagrass (JSM08-6)” value is given as 0%. In data set [11], the “Visual Turfgrass Injury ~13 DAT St. Augustinegrass (JSM 08-8)” value came to 5% and the “Visual Turfgrass Injury ~20 DAT St. Augustinegrass (JSM08-8)” value came to 12%.

The record behind these values is patent US20090215625A1, “Combinations of Herbicides and Safeners” (priority 2008, published 2009).
